In brackets after ≈: the same amount, converted by molar mass.
conditions: buffer; pH 7.4; 200.0 µM

Row | SMILES | solubility kinetic [µg/mL]
1 | COc1ccc(CNC(=O)c2cc3ccccc3oc2=O)cc1 | < 0.7
2 | CCN1C(=O)N(CC)c2cccc3cccc1c23 | 1.6 (≈ 6.66 µM)
3 | CCOC(=O)C1=C(C)NC(=O)NC1/C=C\c1ccccc1 (centres undefined) | 1.3 (≈ 4.54 µM)
4 | Cc1nn(-c2ccccc2)c2nc(N)c(C(N)=O)cc12 | > 40.1
5 | Cc1ccc(S(=O)(=O)NCC2(c3ccccc3)CCOCC2)cc1 | < 0.7
6 | COc1ccc(C/C(N)=N/OC(=O)c2ccco2)cc1OC | > 45.6
7 | CCNc1nc(NC(C)(C)C)nc(SC)n1 | 35.9 (≈ 149 µM)
8 | Cc1cccc(Nc2nc(N)c([N+](=O)[O-])c(NCc3ccccc3)n2)c1 | 0.7 (≈ 2 µM)
9 | COc1ccc(Cn2c(=O)cc(N)n(-c3ccccc3C)c2=O)cc1 | > 50.6
10 | CCC(CC)C(=O)N1CC(=O)Nc2ccc(F)cc2C1c1ccccc1 (centres undefined) | 51.9 (≈ 146 µM)
11 | CCOC(=O)c1cc2c(ccn2C)n1Cc1ccccc1Cl | < 0.3
12 | COc1ccc(C(=O)Cn2cc[n+](C)c2)cc1.[Br-] | > 46.7
13 | Cc1[nH]c(=S)c(C#N)c(-c2ccco2)c1C(=O)N(C)C | > 43.1
14 | O=C1CC(N2CCc3ccccc32)C(=O)N1c1ccc(F)cc1 (centres undefined) | > 46.5
15 | O=C(CCn1c(=O)oc2ccccc21)NCCCN1CCOCC1 | 43.2 (≈ 130 µM)
16 | O=C(Nc1cc(N2CCOCC2)ncn1)NC1(C(F)(F)F)Oc2ccc(Cl)cc2O1 (centres undefined) | 65.5 (≈ 147 µM)
17 | CCc1nnc(NC(=O)C2(C)COC(c3ccccc3)OC2)s1 (centres undefined) | > 50
18 | Cc1ccc(CCS(=O)(=O)c2ccc(C(C)(C)C)cc2)cn1 | > 47.6
19 | Cc1nnc(SCc2cc(=O)[nH]c(=S)[nH]2)s1 | > 40.9
20 | COc1ccc(-c2cc(C(=O)N3CCOCC3)no2)cc1 | > 43.2
21 | Cc1ccc2nc(N3CCN(CCO)CC3)nc(-c3ccccc3)c2c1 | > 52.3
22 | O=S(=O)(CCN1CCSCC1)c1ccccc1 | 34.7 (≈ 128 µM)
23 | S=C(NCc1ccccc1)NCc1ccco1 | 28.2 (≈ 114 µM)
24 | CN1CCN(CCC(=O)Nc2ccccc2)CC1 | > 37.1
25 | Cc1sc2nc[nH]c(=O)c2c1-c1ccc(F)cc1 | 4.8 (≈ 18.4 µM)
26 | COC(=O)/C=C1\SC(N)=NC1=O | > 27.9

Row | SMILES | solubility kinetic [µg/mL]
27 | NC1=Nc2cccc3cccc1c23 | 23.2 (≈ 138 µM)
28 | O=C(/C=C/c1ccc(OCCCF)cc1)N1CCOCC1 | > 44
29 | CN(C)CCOC(c1ccc(Cl)cc1)c1ccccn1.O=C(O)/C=C/C(=O)O (centres undefined) | > 61
30 | CN(CCOc1ccccc1)CC(O)COc1ccccc1 (centres undefined) | 28.5 (≈ 94.6 µM)
31 | CC(C)(C)c1cc(CCC(=O)Nc2ccncc2)cc(C(C)(C)C)c1O | 40.4 (≈ 114 µM)
32 | COc1ccc(N2C(=O)CS/C2=N\C(=S)Nc2ccccc2)cc1 | 1.4 (≈ 3.92 µM)
33 | CSc1nc(-c2ccccc2)nc(N2CCOCC2)c1C(C)=O | 12 (≈ 36.4 µM)
34 | CN1CCN(C(=O)C2CCN(S(=O)(=O)c3ccc(F)cc3)CC2)CC1 | 38.5 (≈ 104 µM)
35 | Cc1ccc2[nH]c(CCN(C)C)c(CN3CCOCC3)c2c1 | > 45.2
36 | CCc1ccc(NC(=O)CCc2nc3ccccc3[nH]2)cc1 | 0.7 (≈ 2.39 µM)
37 | O=C(Nc1cc(-c2nc3ncccc3o2)ccc1Cl)c1ccco1 | 4.4 (≈ 13 µM)
38 | Cc1c(Cl)cccc1NC(=S)Nc1ccccn1 | 1 (≈ 3.6 µM)
39 | N[C@H]1CONC1=O | > 15.3
40 | O=c1[nH]cccc1-c1nc2ccccc2n1Cc1cccc(F)c1 | 2.4 (≈ 7.52 µM)
41 | CC(=O)Nc1ccc(N=Cc2c(O)ccc3ccccc23)cc1 | 7.6 (≈ 25 µM)
42 | CC1C(=O)N2CCCc3cc(S(=O)(=O)N4CCCCC4)cc1c32 (centres undefined) | > 50.2
43 | Nc1ccc(C2(c3ccc(N)cc3)CCCCC2)cc1 | 36 (≈ 135 µM)
44 | CCOc1ccc(N(C(=O)c2cc3ccccc3oc2=O)C2C=CS(=O)(=O)C2)cc1 (centres undefined) | > 63.8
45 | CCOc1ccc(S(=O)(=O)NCc2ccccn2)c(C)c1C | > 48.1
46 | Cc1cc(C(=O)N/N=C/c2cn(C)nc2C)c2ccccc2n1 | > 46.1
47 | CCOc1ccc(CCNC(=O)COC(=O)/C=C/c2ccco2)cc1OCC | 39.5 (≈ 102 µM)
48 | Cc1cc(-c2nc3ccccc3c(=O)o2)ccc1[N+](=O)[O-] | < 0.3
49 | CCOc1ccc(S(=O)(=O)Nc2ccc(C(=O)NCC(c3ccc(OC)cc3)N3CCOCC3)cc2)cc1 (centres undefined) | 37.9 (≈ 70.2 µM)
50 | NC(=O)Cn1cnc2nc3n(c2c1=O)CCC3 | > 35
51 | [Br-].c1ccc(C[n+]2ccc3ccccc3c2)cc1 | 43.9
52 | Cc1c(C(=O)O)cc(-c2ccccc2)n1Cc1ccccc1 | > 43.7

Further lines, results first:

Row | solubility kinetic [µg/mL] | SMILES
53 | > 58.6 | COc1ccc(CCNC(=O)C(C)SCC(=O)Nc2ccc(F)cc2)cc1 (centres undefined)
54 | > 45.5 | CC(=O)Nc1ccc(NC(=O)c2c([N+](=O)[O-])cnn2C)cc1
55 | 3.7 (≈ 11 µM) | COC(=O)c1ccc(CNC(=O)c2coc3ccccc3c2=O)cc1
56 | > 52.8 | O=C(NCC1CCCO1)C1CCCN1C(=O)Nc1ccc(Cl)cc1 (centres undefined)
57 | > 50.2 | CCOc1ccccc1C(=O)NCC(=O)OCC(=O)N1CCCC1
58 | > 36.9 | Cc1ccc(C)c(N2N=C(C(=O)O)CCC2=O)c1
59 | > 44.6 | CC1(c2ccc3ccccc3c2)NC(=O)N(CC(N)=O)C1=O (centres undefined)
60 | < 0.7 | COc1ccc(C(=O)Nc2cc(OC)c(Cl)cc2OC)cc1
61 | 5.8 (≈ 19.1 µM) | COc1cccc(NC(=O)COc2cccnc2[N+](=O)[O-])c1
62 | 35.7 (≈ 140 µM) | COC(=O)c1cccc(NC(=O)c2ccccc2)c1
63 | 48.8 (≈ 149 µM) | Cc1ccc(CNC(=O)C2CC(=O)N(C3CCCCCC3)C2)cc1 (centres undefined)
64 | > 50.9 | CC(CC(=O)OCC(=O)NC1CCS(=O)(=O)C1)c1ccccc1 (centres undefined)
65 | > 49.6 | CCN(CC(=O)NCc1ccc(F)cc1)C(=O)/C=C/c1ccco1
66 | 44.4 (≈ 123 µM) | NC1=NC(c2ccccc2)=NC1(NC(=O)c1ccccc1)C(Cl)Cl (centres undefined)
67 | 1.5 (≈ 4.43 µM) | Cc1cccc2cc(COC(=O)c3cccc([N+](=O)[O-])c3)c(=O)[nH]c12
68 | > 62.3 | Cc1ccccc1C(=O)OCC(=O)Nc1cccc(S(=O)(=O)NC2=NCCC2)c1

Row | solubility kinetic [µg/mL] | SMILES
69 | 44.1 (≈ 143 µM) | N/C(=N\O)c1ccc(Oc2ccccc2Cl)c([N+](=O)[O-])c1
70 | < 0.7 | CCOC(=O)c1ccccc1NC(=O)c1cc2ccccc2o1
71 | 1.1 (≈ 4.15 µM) | O=C(Nc1cccc(Cl)c1)NC1CC2CCC1C2 (centres undefined)
72 | > 40.5 | O=[N+]([O-])c1cccc(OCc2cn3cccnc3n2)c1
73 | > 44.7 | O=C(CNC(=O)c1cc(Cl)cc([N+](=O)[O-])c1)NC1CC1
74 | 25.5 (≈ 111 µM) | O=[N+]([O-])c1ccc(-c2cn3c(n2)CCC3)cc1
75 | > 47.2 | Cc1nc2ccc(NC(=S)NC3CCCCC3)cc2nc1C
76 | > 42.2 | O=C(CSc1nccc(=O)[nH]1)NC1CCCCCC1
77 | 5.3 (≈ 11.1 µM) | CN(c1ccccc1)S(=O)(=O)c1cccc(C(=O)NCC(=O)Nc2ccc(F)c(F)c2F)c1
78 | 1.3 (≈ 4.16 µM) | N#C/C(=C/c1cccc(O)c1)C(=O)NCc1ccc(Cl)cc1
79 | > 53.3 | COc1ccc(NC2CC(=O)N(c3cc([N+](=O)[O-])ccc3C)C2=O)cc1 (centres undefined)
80 | 40.7 (≈ 113 µM) | COc1ccc(N2CCN(C(=O)c3ccccc3F)CC2)c([N+](=O)[O-])c1
81 | 3.7 (≈ 11.6 µM) | O=C(COC(=O)/C=C/c1ccc(F)cc1)NC1CCCCCC1
82 | > 42.8 | O=C(O)C1CC=CCC1C(=O)Nc1ccc2c(c1)CCC2 (centres undefined)
83 | 28.2 (≈ 90 µM) | O=C(COC(=O)c1cccc(OC(F)F)c1)NC1CCCC1
84 | < 0.7 | COc1ccc(C(=O)OCC(=O)Nc2c(C)cccc2C)cc1
